According to patent US20070134391A1, “High-Potency Sweetener Composition for Treatment and/or Prevention of Autoimmune Disorders and Compositions Sweetened Therewith” (THE COCA-COLA COMPANY, priority 2005, published 2007):

Columns and labels:
[1] = test system: panel of experts in the sensory evaluation of foods and beverages; assay: Sensory evaluation of sweetness linger and sugar-like taste by expert panel; type: in vivo; conditions: scale 0=no sweetness linger to 5=high sweetness linger
Experimental: Sensory evaluation of the samples prepared in Example Set G was carried out under the following protocol, similar to that described hereinabove. In this test protocol, none of the samples were swallowed. All samples were expectorated and the mouth was rinsed with water after the tasting. Immediately upon sensing maximal sweetness, the sample was expectorated, the mouth was rinsed with water and the rate of sweetness decay (“Sweetness Linger”) was measured, where attention was focused on the sweetness 3-4 min after the water rinse. After sample tasting was complete, a salty oyster cracker was chewed followed by a water rinse, and at least 5 minutes followed before tasting the next sample. The sweetness linger was rated by a panel of experts in the sensory evaluation of foods and beverages using the following scale: 0=no sweetness linger, 1=very slight sweetness linger, 2=slight sweetness linger, 3=moderate sweetness linger, 4=moderately high sweetness linger, 5=high sweetness linger.
The “Sweetness Linger” rating for sucrose observed by this protocol is defined as 0. The Sweetness Linger of a 500 ppm of REBA control sample is defined as 5. Experimental samples were tasted by the same protocol, always allowing sufficient time between samples to ensure re-equilibration of the sensory system. Re-tasting of control samples during the course of the experiment was allowed and encouraged.
The comparison taste test was performed between two controls and addition of sweet taste improving additive on the onset and/or sweetness linger.
Sweet taste improving compositions were combined with a REBA solution to determine their effect on sweetness linger. Screening of the initial sample, or further dilutions, allowed identification of concentrations which were just above-threshold, herein defined as “near-threshold concentrations.” The near-threshold additive concentrations, a 6- to 100-fold higher higher additive concentration (depending on the off-taste intensity), and a mid-level additive concentration (halfway between the near-threshold and higher additive concentration) were evaluated to determine the effect on sweetness linger of a REBA solution.
Formulations of a 500 ppm EBA in a phosphoric acid solution (75%) at a pH of 2.5 with phosphoric acid or a pH of 3.1 with citric acid and potassium citrate were prepared prior to the addition of the additives at the three levels of concentration.
Sensory evaluation using the protocol described in Example Set G then was used to evaluate the sweetness linger of the REBA solutions.

[2] = Rate of dissolution of rebaudioside A polymorph and amorphous forms in H2O; type: physicochemical
[3] = Example Set G: citric acid/potassium citrate composition equivalent to diet lemon-lime beverage, 3-4 min after water rinse
[4] = Example Set H: carbon-treated water with phosphoric acid (75%) to pH 2.4-2.5

Row | Rate of dissolution in H2O at 25° C. [2] | Molecule | sweetness linger [1, 3] | sweetness linger [1, 4]
1 | – | OC[C@H]1O[C@@](CO)(O[C@H]2O[C@H](CO)[C@@H](O)[C@H](O)[C@H]2O)[C@@H](O)[C@@H]1O [sugar, sucrose] | 0 | 0
2 | Very low (<0.2%/ %/60 minutes | rebaudioside A [Form 1] | – | –
3 | – | rebaudioside A | 5 | 5
